Test results taken from patent US10577322B2, “5-methoxytryptophan and its derivatives and uses thereof” (National Health Research Institutes, priority 2015, dated 2020).

Assays:
COX-2 [1] = assay: PMA-induced COX-2 expression in A549 cells (immunoblot); type: cell-based; settings: for PMA-induced COX-2 protein expression: 30 min pretreatment, PMA 8 h
Procedure: (§1) Cellular protein were resolved by 5% to 20% SDS-PAGE and transferred to nitrocellulose membranes and blotted with specific antibodies as previously described (Lee, G. L., et al.).
After pretreating A549 cells with different concentrations of 5-MTP, 5-MTPE and NACT-5-MTP for 30 min, cells were stimulated with PMA for 8 h. Cell lysates were immunoblotted with antibodies for COX-2 or β-actin.

COX-2 [2] = assay: LPS-induced COX-2 protein expression in RAW264.7 cells (immunoblot); type: cell-based, mouse; settings: LPS 8 h
Procedure: (§2) Mouse RAW264.7 macrophages were from the American Type Culture Collection and cultured in DMEM containing 10% FBS. […] The duration of LPS (100 ng/ml) treatment varied depending on the experiment.
as §1
(§3) After pretreating mouse macrophage RAW264.7 cells with different concentrations of 5-MTP for 30 min, cells were stimulated with LPS for 8 h. Cell lysates were immunoblotted with antibodies for COX-2 or β-actin. In addition, RAW264.7 cells were transfected with COX-2 promoter-luciferase plasmid. After 24 h transfection, the cells were incubated with LPS for 8 h. Luciferase activity was measured.

IL-6 = assay: LPS-induced IL-6 level in RAW264.7 culture supernatants (ELISA); type: cell-based, mouse; settings: RAW264.7 cells; for LPS-induced IL-6 protein expression: LPS 8 h
Procedure: as §2
Moreover, RAW264.7 cells and IL-6 promoter-luciferase plasmid transfected RAW264.7 cells were pretreated with different concentrations of 5-MTP for 30 min, followed by LPS stimulation for 8 h. IL-6 promoter activity was measured by luciferase assay. IL-6 level in culture supernatants was measured by ELISA.
Furthermore, RAW264.7 cells were treated with different concentrations of 5-MTP or 5-MTPE for 24 h. Cell viability was determined by MTT assay. In another experiment, after pretreating RAW264.7 cells with different concentrations of 5-MTP or 5-MTPE for 30 min, cells were stimulated with LPS for 24 h. IL-6 level in culture supernatants was measured by ELISA.
(§4) Herein, after pretreating RAW264.7 cells with different concentrations of 5-MTP, 5-MTPE, COX-2 inhibitors (NSC398 or SC560) and NF-κB inhibitor JSH-23 for 30 min, cells were stimulated with LPS. In addition, RAW264.7 cells were also transfected with COX-2 promoter-luciferase plasmid. After 24 h transfection, the cells were incubated with LPS for 8 h. Luciferase activity as measured.

A549 lung cancer cells = assay: Transwell cell migration assay, A549; type: cell-based; settings: 30 min pretreatment, PMA 4 h or 24 h
Procedure: (§5) Briefly, cells (10^4/well) were seeded on the upper chamber (6.5-mm insert, 8-μm polycarbonate membrane; Corning Inc.), which was placed in each well of a 24-well plate. The lower chamber was filled with 700 μL DMEM supplemented with 10% FBS. For assessment of in vitro invasion, cells were seeded onto the upper chamber insert coated with Matrigel (BD Biosciences) under the same conditions as the transwell migration assays. At the indicated time, nonmigrated cells that remained at the top surface of the insert were removed with a cotton swab. Cells that migrated to the lower membrane surface and cells that invaded through the matrigel gel to the underside of the membrane were fixed, stained with 0.1% crystal violet for 20 min, and counted under light microscopy. All of the assays were done in triplicate with excellent reproducibility.
(§6) Lung cancer A549 and breast cancers BT474 and T47D cells were pretreated with different concentrations of 5-MTP or 5-MTPE for 30 min, then stimulated with PMA for 4 h or 24 h. Cell migration was measured by the transwell migration assay.

[3] = test system: BT474 breast cancer cells; assay: Transwell cell migration assay, BT474; type: cell-based; settings: 30 min pretreatment, PMA 4 h or 24 h
Procedure: as §5, §6

T47D breast cancer cells = assay: Transwell cell migration assay, T47D; type: cell-based; settings: 30 min pretreatment, PMA 4 h or 24 h
Procedure: as §5, §6

COX-2 promoter = assay: COX-2 promoter-luciferase assay in RAW264.7 cells; type: cell-based, mouse; settings: LPS 8 h
Procedure: RAW264.7 macrophages were cotransfected with COX-2 promoter-luciferase, IL-6 promoter-luciferase constructs as previously described (Lee, G. L., et al.) or p5xNF-κB-luciferase (Stratagene) and pcDNA3.1-β-galactosidase plasmids using FuGENE 6 (Roche). After overnight transfection, the cells were incubated with or without LPS in the presence or absence of 5-MTP for 8 h. After treatment, cells were lysed, and luciferase activity was measured using an assay kit (Promega). β-galactosidase activity was used to normalize the data.
as §3, with “measured. The experiments were repeated 3 times with similar results. The results shown in FIGS. 3A-3B confirmed that 5-MTP blocked LPS-induced COX-2 protein expression and promoter activity in a concentration-dependent manner in RAW264.7 cells.” for “measured.”
as §4

## COc1ccc2[nH]cc(CCN)c2c1 [5-methoxytryptamine, reference compound]
COX-2 [1]
  PMA-induced COX-2 protein expression: neither serotonin nor 5-methoxytryptamine or tryptophan exerted an effect
COX-2 [2]
  LPS-induced COX-2 protein expression: neither serotonin nor 5-methoxytryptamine or tryptophan exerted an effect
IL-6
  LPS-induced IL-6 protein expression: neither serotonin nor 5-methoxytryptamine or tryptophan exerted an effect

## NCCc1c[nH]c2ccc(O)cc12 [Serotonin, reference compound]
COX-2 [1]
  PMA-induced COX-2 protein expression: neither serotonin nor 5-methoxytryptamine or tryptophan exerted an effect
COX-2 [2]
  LPS-induced COX-2 protein expression: neither serotonin nor 5-methoxytryptamine or tryptophan exerted an effect
IL-6
  LPS-induced IL-6 protein expression: neither serotonin nor 5-methoxytryptamine or tryptophan exerted an effect

## N[C@@H](Cc1c[nH]c2ccccc12)C(=O)O [Tryptophan]
COX-2 [1]
  PMA-induced COX-2 protein expression: neither serotonin nor 5-methoxytryptamine or tryptophan exerted an effect
COX-2 [2]
  LPS-induced COX-2 protein expression: neither serotonin nor 5-methoxytryptamine or tryptophan exerted an effect
IL-6
  LPS-induced IL-6 protein expression: neither serotonin nor 5-methoxytryptamine or tryptophan exerted an effect

## N-acetyl-5-MTP [NACT-5MTP]
COX-2 [1]
  PMA-induced COX-2 protein expression: dose-dependently blocked
COX-2 [1]; PMA
  COX-2 suppressive activity compared with 5-MTP: potent than that of 5-MTP
A549 lung cancer cells
  PMA-induced A549 cell migration: abrogated
[3]
  PMA-induced BT474 cell migration: abrogated
T47D breast cancer cells
  PMA-induced T47D cell migration: abrogated

## Cc1ccc(NCCCc2ccccc2)c(N)c1 [JSH-23, reference compound]
COX-2 promoter
  LPS-induced COX-2 promoter activity (luciferase): dose-dependently blocked
IL-6; 30 min pretreatment, LPS 24 h
  LPS-induced IL-6 level in culture supernatants: dose-dependently blocked
